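The compound was tested at five concentrations on cells cultured in 96-well plates, with a 48-hour exposure period. GI50 is the concentration that inhibits growth by half.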 Calls of active or inactive are those of the source. Rule as the data show it: active = GI50 up to about 1.1 µM and inactive = higher.
Columns and labels:
Experiment in all cases: NCI tumour cell line growth inhibition, 48 h
NCI-H226 = system: NCI-H226
UACC-257 = system: UACC-257
IGROV-1 = system: IGROV-1
U-251 = system: U-251
OVCAR-4 = system: OVCAR-4
OVCAR-5 = system: OVCAR-5
SK-MEL-5 = system: SK-MEL-5
SK-MEL-2 = system: SK-MEL-2
HOP-92 = system: HOP-92
HCT-15 = system: HCT-15
SF-539 = system: SF-539
Malme-3M = system: Malme-3M
CAKI-1 = system: CAKI-1
SN12C = system: SN12C
MOLT-4 = system: MOLT-4
COLO 205 = system: COLO 205
SK-MEL-28 = system: SK-MEL-28

Which results are given for O=C1c2cccc3c(Cl)ccc(c23)C(=O)N1CCCN1CCN(CCCN2C(=O)c3cccc4c(Cl)ccc(c34)C2=O)CC1?
GI50 (NCI-H226): > 100 µM (inactive); GI50 (UACC-257): > 100 µM (inactive); GI50 (IGROV-1): > 100 µM (inactive); GI50 (U-251): 55.7 µM (inactive); GI50 (OVCAR-4): > 100 µM (inactive); GI50 (OVCAR-5): > 100 µM (inactive); GI50 (SK-MEL-5): > 100 µM (inactive); GI50 (SK-MEL-2): > 100 µM (inactive); GI50 (HOP-92): > 100 µM (inactive); GI50 (HCT-15): > 100 µM; GI50 (SF-539): > 100 µM (inactive); GI50 (Malme-3M): > 100 µM (inactive); GI50 (CAKI-1): > 100 µM (inactive); GI50 (SN12C): > 100 µM (inactive); GI50 (MOLT-4): 57.3 µM (inactive); GI50 (COLO 205): > 100 µM (inactive)

O=C1C=CC(CC(=O)c2ccc3ccccc3c2)O1 (stereo unspecified) was tested. Which GI50 (UACC-257) did it give?
Its GI50 is 47.6 µM (inactive).

And the GI50 (SK-MEL-28)?
Its GI50 is 55.8 µM (inactive).

What about the GI50 (IGROV-1) of the same compound?
Its GI50 is 29.2 µM (inactive).

What about the GI50 (U-251) of the same compound?
The GI50 was 18.2 µM (inactive).

What about the GI50 (OVCAR-4) of the same compound?
Its GI50 is 24.9 µM (inactive).

What about the GI50 (OVCAR-5) of the same compound?
Its GI50 is 25.4 µM (inactive).

And the GI50 (SK-MEL-5)?
The GI50 was 59.3 µM (inactive).

And the GI50 (SK-MEL-2)?
Its GI50 is 23.8 µM (inactive).

What about the GI50 (HOP-92) of the same compound?
Its GI50 is 28 µM (inactive).

What about the GI50 (HCT-15) of the same compound?
The GI50 was 20.5 µM.

What about the GI50 (SF-539) of the same compound?
Its GI50 is 18.9 µM (inactive).

What about the GI50 (Malme-3M) of the same compound?
The GI50 was 34.3 µM (inactive).

What about the GI50 (CAKI-1) of the same compound?
Its GI50 is 62.1 µM (inactive).

And the GI50 (SN12C)?
Its GI50 is 18.8 µM (inactive).

What about the GI50 (MOLT-4) of the same compound?
Its GI50 is 21.7 µM (inactive).

What about the GI50 (COLO 205) of the same compound?
Its GI50 is 18 µM (inactive).

What does the source list for Cc1ccccc1NC(=O)C1C(=O)N(c2ccccc2C)C(=O)/C1=N\N (stereo unspecified)?
GI50 (NCI-H226): > 100 µM (inactive); GI50 (UACC-257): > 100 µM (inactive); GI50 (SK-MEL-28): > 100 µM (inactive); GI50 (IGROV-1): > 100 µM (inactive); GI50 (U-251): > 100 µM (inactive); GI50 (OVCAR-4): > 100 µM (inactive); GI50 (OVCAR-5): > 100 µM (inactive); GI50 (SK-MEL-5): > 100 µM (inactive); GI50 (SK-MEL-2): > 100 µM (inactive); GI50 (HOP-92): > 100 µM (inactive); GI50 (HCT-15): > 100 µM; GI50 (SF-539): > 100 µM (inactive); GI50 (Malme-3M): > 100 µM (inactive); GI50 (CAKI-1): > 100 µM (inactive); GI50 (SN12C): > 100 µM (inactive); GI50 (MOLT-4): > 100 µM (inactive); GI50 (COLO 205): > 100 µM (inactive)

Which results are given for Cc1ccc(SCC(=O)C2=C(O)CCCC2=O)cc1?
GI50 (NCI-H226): > 100 µM (inactive); GI50 (UACC-257): > 100 µM (inactive); GI50 (SK-MEL-28): > 100 µM (inactive); GI50 (IGROV-1): > 100 µM (inactive); GI50 (U-251): > 100 µM (inactive); GI50 (OVCAR-4): > 100 µM (inactive); GI50 (OVCAR-5): > 100 µM (inactive); GI50 (SK-MEL-5): > 100 µM (inactive); GI50 (SK-MEL-2): > 100 µM (inactive); GI50 (HOP-92): > 100 µM (inactive); GI50 (HCT-15): > 100 µM; GI50 (SF-539): > 100 µM (inactive); GI50 (Malme-3M): > 100 µM (inactive); GI50 (CAKI-1): > 100 µM (inactive); GI50 (SN12C): > 100 µM (inactive); GI50 (MOLT-4): > 100 µM (inactive); GI50 (COLO 205): > 100 µM (inactive)

Which GI50 (UACC-257) does the source give for CC1(C=O)C(=O)CCC2(C)C3CC(=O)OC3CCC12 (stereo unspecified) here?
The GI50 was > 100 µM (inactive).

And the GI50 (SK-MEL-28)?
Its GI50 is > 100 µM (inactive).

And the GI50 (IGROV-1)?
The GI50 was > 100 µM (inactive).

And the GI50 (U-251)?
The GI50 was > 100 µM (inactive).

And the GI50 (OVCAR-4)?
Its GI50 is > 100 µM (inactive).

What about the GI50 (OVCAR-5) of the same compound?
The GI50 was > 100 µM (inactive).

What about the GI50 (SK-MEL-5) of the same compound?
The GI50 was > 100 µM (inactive).

What about the GI50 (SK-MEL-2) of the same compound?
Its GI50 is > 100 µM (inactive).

What about the GI50 (HOP-92) of the same compound?
Its GI50 is > 100 µM (inactive).

What about the GI50 (HCT-15) of the same compound?
The GI50 was over 100 µM.

And the GI50 (SF-539)?
Its GI50 is > 100 µM (inactive).

What about the GI50 (Malme-3M) of the same compound?
The GI50 was > 100 µM (inactive).

And the GI50 (CAKI-1)?
The GI50 was > 100 µM (inactive).

And the GI50 (SN12C)?
The GI50 was > 100 µM (inactive).

What about the GI50 (MOLT-4) of the same compound?
Its GI50 is > 100 µM (inactive).

What about the GI50 (COLO 205) of the same compound?
Its GI50 is > 100 µM (inactive).

For COC(=O)c1cc2c(nc1C)-c1ccccc1OS2(=O)=O, which GI50 (NCI-H226) is on record?
Its GI50 is > 100 µM (inactive).

And the GI50 (UACC-257)?
The GI50 was > 100 µM (inactive).

What about the GI50 (IGROV-1) of the same compound?
Its GI50 is > 100 µM (inactive).

And the GI50 (U-251)?
The GI50 was 70.1 µM (inactive).

And the GI50 (OVCAR-4)?
The GI50 was > 100 µM (inactive).

What about the GI50 (OVCAR-5) of the same compound?
Its GI50 is > 100 µM (inactive).

What about the GI50 (SK-MEL-5) of the same compound?
Its GI50 is > 100 µM (inactive).

What about the GI50 (HOP-92) of the same compound?
The GI50 was 24.6 µM (inactive).

And the GI50 (HCT-15)?
Its GI50 is over 100 µM.

And the GI50 (SF-539)?
The GI50 was 54.5 µM (inactive).

What about the GI50 (Malme-3M) of the same compound?
Its GI50 is > 100 µM (inactive).

What about the GI50 (CAKI-1) of the same compound?
The GI50 was > 100 µM (inactive).

And the GI50 (SN12C)?
Its GI50 is > 100 µM (inactive).

And the GI50 (MOLT-4)?
The GI50 was > 100 µM (inactive).

And the GI50 (COLO 205)?
The GI50 was > 100 µM (inactive).

How did the GI50 (NCI-H226) turn out when O=C(CCn1[nH]c(=O)c(Cl)c(Cl)c1=O)NOCCCc1ccccc1 was run?
The GI50 was > 100 µM (inactive).

And the GI50 (UACC-257)?
The GI50 was > 100 µM (inactive).

And the GI50 (SK-MEL-28)?
Its GI50 is > 100 µM (inactive).

And the GI50 (IGROV-1)?
The GI50 was > 100 µM (inactive).

What about the GI50 (OVCAR-4) of the same compound?
The GI50 was > 100 µM (inactive).

And the GI50 (OVCAR-5)?
Its GI50 is > 100 µM (inactive).

And the GI50 (SK-MEL-5)?
The GI50 was > 100 µM (inactive).

What about the GI50 (SK-MEL-2) of the same compound?
The GI50 was > 100 µM (inactive).

What about the GI50 (HOP-92) of the same compound?
Its GI50 is > 100 µM (inactive).

And the GI50 (HCT-15)?
The GI50 was over 100 µM.

What about the GI50 (SF-539) of the same compound?
Its GI50 is > 100 µM (inactive).

What about the GI50 (Malme-3M) of the same compound?
Its GI50 is > 100 µM (inactive).

And the GI50 (CAKI-1)?
The GI50 was > 100 µM (inactive).

And the GI50 (SN12C)?
Its GI50 is > 100 µM (inactive).

And the GI50 (MOLT-4)?
The GI50 was > 100 µM (inactive).

Which results are given for CCCCCCCCCCCCCCCC(=O)OCCOCCOCCOCc1ccccc1?
GI50 (NCI-H226): > 100 µM (inactive); GI50 (UACC-257): > 100 µM (inactive); GI50 (SK-MEL-28): > 100 µM (inactive); GI50 (IGROV-1): > 100 µM (inactive); GI50 (U-251): 41.6 µM (inactive); GI50 (OVCAR-4): > 100 µM (inactive); GI50 (OVCAR-5): > 100 µM (inactive); GI50 (SK-MEL-5): > 100 µM (inactive); GI50 (SK-MEL-2): > 100 µM (inactive); GI50 (HOP-92): 21.1 µM (inactive); GI50 (SF-539): > 100 µM (inactive); GI50 (Malme-3M): > 100 µM (inactive); GI50 (CAKI-1): 80.7 µM (inactive); GI50 (SN12C): > 100 µM (inactive); GI50 (COLO 205): > 100 µM (inactive)

O=C1/C(=C/c2ccc(Br)cc2)CCC/C1=C\c1ccc(Br)cc1 was tested. Which GI50 (UACC-257) did it give?
Its GI50 is 4.2 µM (inactive).

And the GI50 (SK-MEL-28)?
The GI50 was 2.12 µM (inactive).

And the GI50 (IGROV-1)?
The GI50 was 15.3 µM (inactive).

What about the GI50 (U-251) of the same compound?
Its GI50 is 7.05 µM (inactive).

And the GI50 (OVCAR-4)?
Its GI50 is 10.1 µM (inactive).

What about the GI50 (SK-MEL-5) of the same compound?
The GI50 was 13.9 µM (inactive).

And the GI50 (SK-MEL-2)?
The GI50 was 20.9 µM (inactive).

And the GI50 (HCT-15)?
The GI50 was 5.13 µM.

And the GI50 (SF-539)?
The GI50 was 16 µM (inactive).

What about the GI50 (Malme-3M) of the same compound?
Its GI50 is 19.6 µM (inactive).

And the GI50 (CAKI-1)?
The GI50 was 29.2 µM (inactive).

And the GI50 (SN12C)?
The GI50 was 19.7 µM (inactive).

What about the GI50 (MOLT-4) of the same compound?
Its GI50 is 7.11 µM (inactive).

What about the GI50 (COLO 205) of the same compound?
The GI50 was 12.7 µM (inactive).

Reference: ChEMBL document CHEMBL1201862, “PubChem BioAssay data set” (2004)
